Assay [1] relates to MSCs. The assay is described as follows: Immunofluorescence of proliferation marker EdU and senescence marker γ-H2AX foci in MSCs. It is filed as cell-based. The settings on record: passage 3 MSCs, 1 μM doxorubicin for 24 hours. The protocol:
Proliferation and senescence were measured simultaneously in order to correlate cell state directly with the MRR T2 values. MSCs from the same donor were serially passaged to passage 3, passage 5, and passage 6. As a positive control for senescence cells, cells from passage 3 were also treated with doxorubicin (DOX), a chemotherapy agent that produces DNA damage and reactive oxygen species to induce senescence in tumor cells. To measure DNA synthesis, EdU (5-ethynyl-2′-deoxyuridine) was used as an indicator of active cell proliferation (shown in green). In contrast, senescent cells are known to accumulate γ-H2AX foci (indicated in red). The proliferation (Pf) index and senescence (Sn) index were calculated from these images and plotted respectively (FIG. 6C and FIG. 6D). […]
(§1) Bone marrow-derived mesenchymal stem cells (MSC) were purchased from Lonza Pte. […] The cell number was calculated using a disposable hemocytometer (INCYTO, Korea) with the trypan blue exclusion method. […]
For detection of SA-βgal together with another senescence marker (γ-H2AX foci) (Ref. 66) and the proliferation marker, 5-ethynyl-2′-deoxyuridine (Edu) in the cells, the protocol was performed as previously mentioned (Ref. 67). […] Subsequently, Edu labeling was detected following the manufacturer's protocol (Invitrogen). […]

For assay [2], the system named is MSCs. Briefly: μMRR T2 measurement of MSCs with induced senescence. It is filed as cell-based.
From the text: Cytokines such as Transforming Growth Factor-β1 (TGFβ1) and interleukin-1 (IL-1) induce senescence in MSCs. TGFβ1 is a TGF family member that controls numerous cellular functions, including proliferation and cell death. (Refs. 51 and 52) IL-1 is a proinflammatory cytokine whose expression is associated with SASP. […] The senescent cells are more in TGF-β1 treated cells than IL-1 treated cells (FIG. 8), which is also confirmed here by its decreased T2 values than IL-1 treated cells.
Since MSCs donors show differences in proliferative ability, it is important to find the limit of detection (LOD) of MRR assay in terms of the cell number. […] Here, the LOD was analyzed by decreasing the concentration of cells even lower to 4 ×10^4, 2×10^4, and 1×10^4 cells for uMRR detection as shown in the FIG. 6H and FIG. 8. […] The batches of 1, 2, and 4 (×10^4 cells) in 4 μl detection volume of TGF-β1 treated and untreated MSCs were analyzed by MRR. […]
as §1
For all MRR experiments, the normalized concentration (3×10^5 cells) of MSCs have used unless otherwise stated. […] Proton transverse relaxation rates T2 were measured by standard Carr-Purcell-Meiboom-Gill (CPMG) pulse programme (Refs. 64 and 65) (FIG. 3B). […]

As to `COc1cccc2c1C(=O)c1c(O)c3c(c(O)c1C2=O)C[C@@](O)(C(=O)CO)C[C@@H]3O[C@H]1C[C@H](N)[C@H](O)[C@H](C)O1` [DOX, doxorubicin], the “senescence (Sn) index (γ-H2aX)” value in assay [1] (compared to P3 and P5) is reported as “more senescent cells”. The “proliferation (Pf) index” value in assay [1] (compared with P3, P5 and P6) was “lowest”.
Take “TGFβ1: TGF family member cytokine that induces senescence in MSCs”: the “T2 values of cytokine treated cells” value in assay [2] (MSCs treated with 10 ng and 20 ng/ml cytokine) is listed as “decreased with increasing cytokine concentrations”. Moreover, in assay [2] (confirmed by decreased T2 values than IL-1 treated cells), the “senescent cells in TGF-β1 treated cells versus IL-1 treated cells” value was “more”.

The values are drawn from patent US20250003900A1, “Micro Magnetic Resonance Relaxometry (MMRR) for Rapid and Non-Invasive Detection of Senescence in Mesenchymal Stem Cells” (Massachusetts Institute of Technology, priority 2021, published 2025).
